The text below walks through data of patent publication US12673073B2, “FasL-engineered biomaterials with immunomodulatory function” (University of Louisville Research Foundation, Inc., priority 2017, dated 2026).

The structures appear in SMILES notation.

One assay addresses SA (Streptomyces avidinii, UniProt P22629). To be noted: cited from earlier work.
A further assay deals with avidin (Gallus gallus, UniProt P02701). To be noted: cited from earlier work.
Assay [1] deals with allogeneic (Balb/c) islets in streptozotocin-diabetic C57BL/6 mice. Put plainly: Allogeneic islet transplantation under the kidney capsule of diabetic mice. The format is in vivo, mouse. The note with it: rapamycin injections 0.2 mg/kg daily 15 doses, without SA-FasL-engineered microgels.
Description: Islet transplantation. BALB/c pancreatic islets were isolated using Liberase TL as a digestive enzyme (Roche Life Science) and purified by a Ficoll density gradient as previously published. […] To biotinylate islets, overnight cultured islets were incubated in 5 μM EZ-Link Sulfo-NHS-LC-Biotin (Thermo Scientific) for 30 min at room temperature, washed extensively with PBS to remove unbound biotin solution. […] Approximately, 500 islets were co-transplanted with 1000 microgels into streptozotocin diabetic (200 mg/kg i.p., diabetes (>250 mg/dL) confirmed on two consecutive days) C57BL/6 or B6.129(Cg)-Foxp3^tm3(DTR/GFP)Ayr (C57BL/6.FoxP3^EGFP/DTR) recipients, where indicated. For Treg depletion, islet graft recipients were injected i.p. with diphtheria toxin (50 μg/kg body weight) and depletion was confirmed 3 days later in peripheral blood lymphocytes using flow cytometry. Selected groups were also treated i.p. with rapamycin at 0.2 mg/kg daily for 15 doses starting the day of transplantation. Unmodified BALB/c islets co-transplanted with unmodified PEG gels were used as controls. Animals were monitored for blood glucose and >250 mg/dL blood glucose levels for two consecutive daily measurements were considered rejected. […] Blood glucose levels were assessed by tail prick before injection and 10, 20, 30, 60, 90, 120 minutes after injection. […]

Sequence of avidin (P02701 25-152): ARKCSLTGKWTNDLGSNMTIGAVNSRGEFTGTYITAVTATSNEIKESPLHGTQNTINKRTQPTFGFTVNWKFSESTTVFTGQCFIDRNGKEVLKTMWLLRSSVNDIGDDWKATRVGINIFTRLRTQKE
Sequence of SA (P22629 25-183): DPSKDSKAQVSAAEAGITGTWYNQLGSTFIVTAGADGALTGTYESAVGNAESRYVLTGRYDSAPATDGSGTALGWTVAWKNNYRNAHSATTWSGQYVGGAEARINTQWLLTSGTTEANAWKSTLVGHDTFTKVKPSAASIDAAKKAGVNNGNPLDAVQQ

In the case of `O=C(O)CCCC[C@@H]1SC[C@@H]2NC(=O)N[C@@H]21` [biotin], the “affinity for SA” value on SA is 10^13 M^−1. For the same molecule, the affinity for avidin on avidin was 10^15 M^−1. In the case of `CO[C@H]1C[C@@H]2CC[C@@H](C)[C@@](O)(O2)C(=O)C(=O)N2CCCC[C@H]2C(=O)O[C@H]([C@H](C)C[C@@H]2CC[C@@H](O)[C@H](OC)C2)CC(=O)[C@H](C)/C=C(\C)[C@@H](O)[C@@H](OC)C(=O)[C@H](C)C[C@H](C)/C=C/C=C/C=C/1C` [rapamycin], in assay [1], the “median survival time (MST) of islet grafts” value came to 36 days.
